Values of other authors, collected in patent US20230416797A1, “MODULATING ANTIMICROBIAL PEPTIDE HALF-LIFE” (Syngulon SA., priority 2020, published 2023).

Experiments:
[1] = system: fungal microbial organism; conditions: from B. subtilis; Zuber et al. (1993), Shenin et al. (1995)
Candida species = conditions: against Candida species; Shekh and Roy (2012)
[2] = system: pathogenic Gram-positive and Gram-negative bacteria; conditions: against pathogenic Gram-positive and Gram-negative bacteria; Acuña et al. (2012)

Question: For aurin B1, which antifungal activities [1] is on record?
Answer: antifungal activities

Question: With botrycidin AJ1316 as the molecule, how does the antifungal activities [1] read?
Answer: antifungal activities

Question: For “WLPPAGLLGRCGRWFRPWLLWLQ SGAQY KWLGNLFGLGPK (WLPPAGLLGRCGRWFRPWLLWLQSGAQYKWLGNLFGLGPK; listed as Enterococcus faecalis) [SEQ ID NO: 1, an Enterococcus faecalis peptide]”, which neutralizing activity (Candida species) is on record?
Answer: neutralizing activity

B1: Ent35-MccV: fusion bacteriocin: N-terminal glycine, Enterocin CRL35, a linker comprising three glycines, and a C-terminal Microcin V (protein)
chain: GKYYGNGVSCNKKGCSVDWGRAIGIIGNNSAANLATGGAAGWKSGGGASGRDIAMAIGTLSGQFVAGGIGAAAGGVAGGAIYDYASTHKPNPAMSPSGLGGTIKQKPEGIPSEAWNYAAGRLCNWSPNNLSDVCL
modifications: Hybrid bacteriocin Ent35-MccV
notes: fusion bacteriocin: N-terminal glycine, Enterocin CRL35, a linker comprising three glycines, and a C-terminal Microcin V
Question: Which antimicrobial activity [2] does the source give for B1 here?
Answer: antimicrobial activity
